In patent publication EP4467535A1, “LACTAM PESTICIDAL COMPOUNDS” (priority 2023, dated 2024):

How the values were obtained:
Format in all cases: in vivo
[1] = system: Diamond back moth (Plutella xylostella); test: Action on Diamond back moth (Plutella xylostella), cabbage leaf dip test; settings: foliar, third instar larvae on dipped cabbage leaves, 72 hours after treatment, read-out: mortality in comparison with untreated controls
Procedure: Example B6: Action on Diamond back moth (Plutella xylostella)
The active compound is dissolved at the desired concentration in a mixture of 1:1 (v/v) distilled water: acetone. Surfactant (Kinetic® HV) is added at a rate of 0.01% (v/v). The test solution is prepared at the day of use.
Leaves of cabbage were dipped in test solution and air-dried. Treated leaves were placed in petri dishes lined with moist filter paper and inoculated with ten third instar larvae. Mortality was recorded 72 hours after treatment. Feeding damages were also recorded using a scale of 0-100%.

[2] = system: Boll weevil (Anthonomus grandis); test: Action on Boll weevil (Anthonomus grandis), 96-well microtiter plate insect diet test; settings: 120 h, egg and larval mortality visually assessed after 5 days, read-out: mortality in comparison with untreated controls
Procedure: Example B3: Action on Boll weevil (Anthonomus grandis )
For evaluating control of boll weevil (Anthonomus grandis) the test unit consisted of 96-well-microtiter plates containing an insect diet and 5-10 A. grandis eggs.
The compounds were formulated using a solution containing 75% (v/v) water and 25% (v/v) DMSO. Different concentrations of formulated compounds were sprayed onto the insect diet at 5 µL, using a custom-built micro atomizer, at two replications.
After application, microtiter plates were incubated at about 25 + 1°C and about 75 + 5 % relative humidity for 5 days. Egg and larval mortality were then visually assessed.

[3] = system: Silverleaf whitefly (Bemisia argentifolii) (adults); test: Action on Silverleaf whitefly (Bemisia argentifolii) adults, sprayed cotton plants; settings: 72 h, read-out: mortality in comparison with untreated controls
Procedure: Example B4: Action on Silverleaf whitefly (Bemisia argentifolii) (adults)
(§1) The active compounds were formulated by a Tecan liquid handler in 100% cyclohexanone as a 10,000 ppm solution supplied in tubes. The 10,000 ppm solution was serially diluted in 100% cyclohexanone to make interim solutions. These served as stock solutions for which final dilutions were made by the Tecan in 50% acetone:50% water (v/v) into 5 or 10ml glass vials. A nonionic surfactant (Kinetic®) was included in the solution at a volume of 0.01% (v/v). The vials were then inserted into an automated electrostatic sprayer equipped with an atomizing nozzle for application to plants/insects.
Cotton plants at the cotyledon stage (one plant per pot) were sprayed by an automated electrostatic plant sprayer equipped with an atomizing spray nozzle. The plants were dried in the sprayer fume hood and then removed from the sprayer. Each pot was placed into a plastic cup and about 10 to 12 whitefly adults (approximately 3-5 days old) were introduced. The insects were collected using an aspirator and a nontoxic Tygon® tubing connected to a barrier pipette tip. The tip, containing the collected insects, was then gently inserted into the soil containing the treated plant, allowing insects to crawl out of the tip to reach the foliage for feeding. […] Mortality was assessed 3 days after treatment, compared to untreated control plants.

[4] = system: Orchid thrips (Dichromothrips corbetti); test: Action on Orchid thrips (Dichromothrips corbetti), floral-immersion technique; settings: adult thrips on dipped orchid petals, 72 hours after treatment, read-out: mortality in comparison with untreated controls
Procedure: Example B2: Action on Orchid thrips (Dichromothrips corbetti)
Dichromothrips corbetti adults used for bioassay were obtained from a colony maintained continuously under laboratory conditions. For testing purposes, the test compound is diluted in a 1:1 mixture of acetone:water (vol:vol), plus Kinetic® HV at a rate of 0.01% v/v.
Thrips potency of each compound was evaluated by using a floral-immersion technique. All petals of individual, intact orchid flowers were dipped into treatment solution and allowed to dryin Petri dishes. Treated petals were placed into individual re-sealable plastic along with about 20 adult thrips. All test arenas were held under continuous light and a temperature of about 28°C for duration of the assay. After 3 days, the numbers of live thrips were counted on each petal. The percent mortality was recorded 72 hours after treatment.

[5] = system: Southern armyworm (Spodoptera eridania), second instar larvae; test: Action on Southern armyworm (Spodoptera eridania), sprayed lima bean plants; settings: 96 h, 4 days after treatment, read-out: mortality in comparison with untreated controls
Procedure: Example B7: Action on Southern armyworm (Spodoptera eridania), second instar larvae
as §1, with “into 10” for “into 5”, “or 20 mL” for “or 10ml”
Lima bean plants (variety Sieva) were grown 2 plants to a pot and selected for treatment at the 1st true leaf stage. Test solutions were sprayed onto the foliage by an automated electrostatic plant sprayer equipped with an atomizing spray nozzle. The plants were dried in the sprayer fume hood and then removed from the sprayer. Each pot was placed into perforated plastic bags with a zip closure. About 10 to 11 armyworm larvae were placed into the bag and the bags zipped closed. Test plants were maintained in a growth room at about 25°C and about 20-40% relative humidity for 4 days, avoiding direct exposure to fluorescent light (24 hour photoperiod) to prevent trapping of heat inside the bags. Mortality and reduced feeding were assessed 4 days after treatment, compared to untreated control plants.

[6] = system: Yellow fever mosquito (Aedes aegypti); test: whole plant or invertebrate; settings: 48 h, larval mortality visually assessed after 2 days at 28 ± 1°C, read-out: mortality in comparison with untreated controls
Procedure: Example B1: Action on Yellow fever mosquito (Aedes aegypti)
For evaluating control of yellow fever mosquito (Aedes aegypti) the test unit consisted of 96-well-microtiter plates containing 200µL of tap water per well and 5-15 freshly hatched A. aegypti larvae.
The active compounds or mixtures were formulated using a solution containing 75% (v/v) water and 25% (v/v) DMSO. Different concentrations of formulated compounds or mixtures were sprayed onto the insect diet at 2.5µL, using a custom-built micro atomizer, at two replications.
For experimental mixtures in these tests identical volumes of both mixing partners at the desired concentrations respectively, were mixed together.
After application, microtiter plates were incubated at 28 ± 1°C, 80 ± 5 % relative humidity for 2 days. Larval mortality was then visually assessed.

[7] = system: Tobacco budworm (Heliothis virescens); test: Action on Tobacco budworm (Heliothis virescens), 96-well microtiter plate insect diet test; settings: 120 h, egg and larval mortality visually assessed after 5 days, read-out: mortality in comparison with untreated controls
Procedure: Example B5: Action on Tobacco budworm (Heliothis virescens)
For evaluating control of tobacco budworm (Heliothis virescens) the test unit consisted of 96-well-microtiter plates containing an insect diet and 15-25 H. virescens eggs.
The compounds were formulated using a solution containing 75% v/v water and 25% v/v DMSO. Different concentrations of formulated compounds were sprayed onto the insect diet at 10 µl, using a custom-built micro atomizer, at two replications.
After application, microtiter plates were incubated at about 28 + 1°C and about 80 + 5 % relative humidity for 5 days. Egg and larval mortality were then visually assessed.

SMILES: Cc1ccc(C(C)C)c(N2C(=O)CS/C2=N\N=C\c2ccc(-c3nn(C)c(N4Cc5cc(OC(F)(F)F)ccc5C4=O)c3C)cc2)c1 [C-2, (2Z)-2-[(E)-[4-[1,4-dimethyl-5-[1-oxo-5-(trifluoromethoxy)isoindolin-2-yl]pyrazol-3-yl]phenyl]methylenehydrazono]-3-(2-isopropyl-5-methyl-phenyl)thiazolidin-4-one]
- mortality at 300 ppm [1]: ≥ 75%
- mortality at 800 ppm [2]: ≥ 75%
- mortality at 300 ppm [3]: ≥ 75%
- mortality at 300 ppm [4]: ≥ 75%
- mortality at 300 ppm [5]: ≥ 75%
- mortality at 800 ppm [6]: ≥ 50%
- mortality at 800 ppm [7]: ≥ 75%
